Results published in US12559470B2, “FGFR inhibitors and uses thereof” (University of Southern California, priority 2018, dated 2026).

Biological target: FGFR2 (Homo sapiens, UniProt P21802)
Experiment: In vitro inhibitory assay (IC50) against FGFR2
Format: biochemical
Experimental: The efficacy of the compounds to inhibit the kinase activity of FGFRs was measured by the determination of the IC50 value.
The results are listed in Table 4 expressed as IC50 values (the concentration of compound at which 50% of the enzyme activity is inhibited).

Sequence of FGFR2 (P21802 22-821): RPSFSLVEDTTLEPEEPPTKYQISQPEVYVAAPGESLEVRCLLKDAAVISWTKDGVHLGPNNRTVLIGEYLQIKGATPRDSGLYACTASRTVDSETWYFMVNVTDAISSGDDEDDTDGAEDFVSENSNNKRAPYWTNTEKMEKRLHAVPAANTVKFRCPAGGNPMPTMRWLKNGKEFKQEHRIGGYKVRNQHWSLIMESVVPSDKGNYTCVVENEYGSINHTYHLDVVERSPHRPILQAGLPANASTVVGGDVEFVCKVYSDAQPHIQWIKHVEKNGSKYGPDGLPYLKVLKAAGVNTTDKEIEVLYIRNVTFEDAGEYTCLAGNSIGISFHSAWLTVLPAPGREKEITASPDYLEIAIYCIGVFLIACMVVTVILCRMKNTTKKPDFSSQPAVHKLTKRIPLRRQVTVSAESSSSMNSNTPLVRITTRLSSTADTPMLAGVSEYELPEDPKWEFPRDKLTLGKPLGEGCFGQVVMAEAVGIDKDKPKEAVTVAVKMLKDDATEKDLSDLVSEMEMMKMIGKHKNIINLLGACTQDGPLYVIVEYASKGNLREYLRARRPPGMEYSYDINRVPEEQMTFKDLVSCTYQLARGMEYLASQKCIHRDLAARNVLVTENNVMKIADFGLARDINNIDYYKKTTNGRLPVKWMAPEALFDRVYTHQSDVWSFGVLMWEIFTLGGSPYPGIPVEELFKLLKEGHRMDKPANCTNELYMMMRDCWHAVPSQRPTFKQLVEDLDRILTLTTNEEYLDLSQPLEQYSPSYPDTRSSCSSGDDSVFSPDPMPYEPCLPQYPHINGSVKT

SMILES: CCN1CCN(c2ccc(Nc3cc(-c4cccnc4Nc4c(Cl)c(OC)cc(OC)c4Cl)ncn3)cc2)CC1 [Compound 1, 6-(2-((2,6-dichloro-3,5-dimethoxyphenyl)amino)pyridin-3-yl)-N-(4-(4-ethylpiperazin-1-yl)phenyl)pyrimidin-4-amine]
- IC50: 6 nM
